In US20100216791A1, “PYRIDINYLQUINAZOLINAMINE DERIVATIVES AND THEIR USE AS B-RAF INHIBITORS” (ASTRAZENECA, priority 2006, published 2010):

The compounds below were run against Mutant B-Raf (V600E) enzyme (MT B-Raf) (Homo sapiens, UniProt P15056, V600E) (assay: biochemical). Details: B-Raf Alpha screen comparable to the described assay; phosphorylation of biotinylated HIS-MEK-AVI; results may be an average of two or more results.
Mutant B-Raf (V600E) enzyme (MT B-Raf), sequence (P15056 whole entry V600E): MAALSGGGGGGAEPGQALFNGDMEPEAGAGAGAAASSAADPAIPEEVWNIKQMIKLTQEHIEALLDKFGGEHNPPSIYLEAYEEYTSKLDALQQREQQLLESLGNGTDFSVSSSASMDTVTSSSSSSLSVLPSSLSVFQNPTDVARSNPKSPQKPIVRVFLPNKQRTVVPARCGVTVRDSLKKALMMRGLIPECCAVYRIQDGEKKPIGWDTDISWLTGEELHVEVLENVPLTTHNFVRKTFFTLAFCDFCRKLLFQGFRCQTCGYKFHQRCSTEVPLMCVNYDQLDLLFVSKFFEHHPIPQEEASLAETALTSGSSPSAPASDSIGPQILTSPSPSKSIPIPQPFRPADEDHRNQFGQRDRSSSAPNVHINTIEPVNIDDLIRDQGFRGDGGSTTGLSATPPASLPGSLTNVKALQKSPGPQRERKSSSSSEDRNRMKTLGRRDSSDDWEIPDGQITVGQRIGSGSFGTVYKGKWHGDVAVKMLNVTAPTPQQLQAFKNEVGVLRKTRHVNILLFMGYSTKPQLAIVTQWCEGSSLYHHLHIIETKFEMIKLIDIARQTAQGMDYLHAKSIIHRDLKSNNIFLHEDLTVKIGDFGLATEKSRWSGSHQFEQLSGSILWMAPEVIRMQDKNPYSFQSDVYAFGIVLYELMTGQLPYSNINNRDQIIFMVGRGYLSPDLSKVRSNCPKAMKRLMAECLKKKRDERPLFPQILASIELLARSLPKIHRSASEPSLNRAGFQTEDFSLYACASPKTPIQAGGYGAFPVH

Row | SMILES | IC50 [nM]
1 | c1cnn(-c2ccc(Nc3ncc4cc(-c5ccncc5)ccc4n3)cc2)c1 [Example 108, N-[4-(1H-Pyrazol-1-yl)phenyl]-6-pyridin-4-ylquinazolin-2-amine] | 250
2 | Cc1nc2cc(Nc3ncc4cc(-c5ccncc5)ccc4n3)ccc2o1 [Example 109, N-(2-Methyl-1,3-benzoxazol-5-yl)-6-pyridin-4-ylquinazolin-2-amine] | 940
3 | COCCNS(=O)(=O)c1ccc(Nc2ncc3cc(-c4ccncc4)ccc3n2)cc1 [Example 113] | 100
4 | COCCNC(=O)c1ccc(Nc2ncc3cc(-c4ccncc4)ccc3n2)c(OC)c1 [Example 114] | 6800
5 | COCCNC(=O)c1ccc(Nc2ncc3cc(-c4ccnc(OC)c4)ccc3n2)cc1 [Example 115] | 520
6 | Cc1cc(Nc2ncc3cc(-c4ccncc4)ccc3n2)ccc1C(C)N(C)P(C)(C)=O (stereo not drawn) [Example 130] | 120
7 | CC(c1ccc(Nc2ncc3cc(-c4ccncc4)ccc3n2)cc1)N1CCCC1 (stereo not drawn) [Example 131, 6-(Pyridin-4-yl)-N-(4-(1-(pyrrolidin-1-yl)ethyl)phenyl)quinazolin-2-amine] | 19
8 | CN1CCN(Cc2ccc(Nc3ncc4cc(-c5ccncc5)ccc4n3)cc2)CC1 [Example 132] | 73
9 | CC(c1ccc(Nc2ncc3cc(-c4ccncc4)ccc3n2)cc1)N(C)CCO (stereo not drawn) [Example 134] | 35
10 | CC(c1ccc(Nc2ncc3cc(-c4ccncc4)ccc3n2)cc1)N(C)CCCO (stereo not drawn) [Example 135] | 29
11 | CC(NCC1CC1)c1ccc(Nc2ncc3cc(-c4ccncc4)ccc3n2)cc1 (stereo not drawn) [Example 136, N-(4-{1-[(Cyclopropylmethyl)amino]ethyl}phenyl)-6-pyridin-4-ylquinazolin-2-amine] | 37
12 | Nc1ccc(Nc2ncc3cc(-c4ccncc4)ccc3n2)cc1 [Example 137] | 80
13 | CCCNC(C)c1ccc(Nc2ncc3cc(-c4ccncc4)ccc3n2)cc1 (stereo not drawn) [Example 138] | 47

Results, then the compound that gave them:

Row | IC50 [nM] | SMILES
14 | 1900 | CN(C)c1ccc(Nc2ncc3cc(-c4ccncc4)ccc3n2)cc1 [Example 107, N,N-Dimethyl-N′-(6-pyridin-4-ylquinazolin-2-yl)benzene-1,4-diamine]
15 | 63 | CN1CCCN(C(=O)c2ccc(Nc3ncc4cc(-c5ccncc5)ccc4n3)cc2)CC1 [Example 116, N-{4-[(4-Methyl-1,4-diazepan-1-yl)carbonyl]phenyl}-6-pyridin-4-ylquinazolin-2-amine]
16 | 73 | CN(C)C1CCN(C(=O)c2ccc(Nc3ncc4cc(-c5ccncc5)ccc4n3)cc2)C1 (stereo not drawn) [Example 117]
17 | 93 | CN(C)[C@H]1CCN(C(=O)c2ccc(Nc3ncc4cc(-c5ccncc5)ccc4n3)cc2)C1 [Example 118]
18 | 64 | CC(=O)N1CCN(C(=O)c2ccc(Nc3ncc4cc(-c5ccncc5)ccc4n3)cc2)CC1 [Example 119]
19 | 56 | CN1CCN(C(=O)c2ccc(Nc3ncc4cc(-c5ccncc5)ccc4n3)cc2)CC1 [Example 120]
20 | 78 | O=C(O)c1ccc(Nc2ncc3cc(-c4ccncc4)ccc3n2)cc1 [Example 122, 4-(6-(Pyridin-4-yl)quinazolin-2-ylamino)benzoic acid]
21 | 46 | CC(c1ccc(Nc2ncc3cc(-c4ccncc4)ccc3n2)cc1)N(C)C (stereo not drawn) [Example 133]
